From ChEMBL document CHEMBL5131534, “Identification of 2-Pyridinylindole-Based Dual Antagonists of Toll-like Receptors 7 and 8 (TLR7/8)” (ACS Med Chem Lett, 2022)
pIC50: −log10 of the molar value.

Experiments:
[1] = target: T1, Toll-like receptor 7 (Homo sapiens, UniProt Q9NYK1); assay: Antagonist activity at gardiquimod stimulated human TRL7 overexpressed in HEK293 cells assessed as inhibition of NF kappa B/Ap-1 activation preincubated with compound for 30 mins followed by gardiquimod stimulation measured after 22 hrs by SEAP reporter assay; format: cell-based
T1 sequence (Q9NYK1 whole entry): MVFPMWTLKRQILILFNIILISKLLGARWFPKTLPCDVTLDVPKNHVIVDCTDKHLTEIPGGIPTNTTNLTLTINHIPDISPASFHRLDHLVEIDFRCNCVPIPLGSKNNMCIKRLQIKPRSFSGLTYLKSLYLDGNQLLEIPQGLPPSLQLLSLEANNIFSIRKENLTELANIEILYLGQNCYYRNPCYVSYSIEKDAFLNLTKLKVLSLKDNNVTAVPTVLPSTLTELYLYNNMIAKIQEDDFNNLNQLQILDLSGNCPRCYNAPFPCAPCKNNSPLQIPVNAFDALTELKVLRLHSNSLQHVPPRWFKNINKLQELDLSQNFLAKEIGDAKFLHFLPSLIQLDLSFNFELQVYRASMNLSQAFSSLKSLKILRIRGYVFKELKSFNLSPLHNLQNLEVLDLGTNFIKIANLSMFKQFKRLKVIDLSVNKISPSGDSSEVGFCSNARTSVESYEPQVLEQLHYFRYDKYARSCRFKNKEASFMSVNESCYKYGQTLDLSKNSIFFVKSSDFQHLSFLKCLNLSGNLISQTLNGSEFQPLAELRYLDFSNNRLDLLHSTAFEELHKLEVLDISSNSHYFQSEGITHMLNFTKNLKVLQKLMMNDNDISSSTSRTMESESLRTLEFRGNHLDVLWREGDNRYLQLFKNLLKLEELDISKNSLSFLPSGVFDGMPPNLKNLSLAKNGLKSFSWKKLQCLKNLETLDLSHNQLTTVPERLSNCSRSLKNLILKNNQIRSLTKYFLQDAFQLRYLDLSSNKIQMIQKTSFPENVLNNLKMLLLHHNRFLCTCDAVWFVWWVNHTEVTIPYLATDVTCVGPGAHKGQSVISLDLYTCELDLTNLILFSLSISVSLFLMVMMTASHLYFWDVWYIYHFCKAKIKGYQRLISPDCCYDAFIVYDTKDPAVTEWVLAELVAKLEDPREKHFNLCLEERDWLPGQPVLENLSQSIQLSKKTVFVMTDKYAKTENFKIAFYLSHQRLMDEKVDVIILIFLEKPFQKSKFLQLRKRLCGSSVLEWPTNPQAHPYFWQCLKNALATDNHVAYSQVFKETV

[2] = species on record: Homo sapiens; assay: Selectivity ratio of IC50 for human TLR9 to IC50 for human TLR7
[3] = test system: Mus musculus; assay: Anti-inflammatory activity against MRL/Ipr Systemic lupus erythematosus mouse model assessed as inhibition of urinary NGAL at 10 mg/kg, po administered for 8 weeks and measured 24 hrs post final dose relative to control; format: functional; parameters: scale not given: the % may be the effect or the level left; settings: time 1368 hrs
[4] = test system: Mus musculus; assay: Anti-inflammatory activity against MRL/Ipr Systemic lupus erythematosus mouse model assessed as inhibition of anti-dsDNA Ab titer at 10 mg/kg, po administered for 8 weeks and measured 24 hrs post final dose relative to control; format: functional; parameters: scale not given: the % may be the effect or the level left; settings: time 1368 hrs
[5] = test system: Mus musculus; assay: Anti-inflammatory activity against MRL/Ipr Systemic lupus erythematosus mouse model assessed as inhibition of proteinuria at 10 mg/kg, po administered for 8 weeks and measured 24 hrs post final dose relative to control; format: functional; parameters: scale not given: the % may be the effect or the level left; settings: time 1368 hrs
[6] = test system: Mus musculus; assay: Anti-inflammatory activity against MRL/Ipr Systemic lupus erythematosus mouse model assessed as inhibition of anti-Sm/RNP Ab titer at 10 mg/kg, po administered for 8 weeks and measured 24 hrs post final dose relative to control; format: functional; parameters: scale not given: the % may be the effect or the level left; settings: time 1368 hrs
[7] = Toxicity in MRL/Ipr Systemic lupus erythematosus mouse model assessed as change in body weight at 10 mg/kg, po administered for 8 weeks and measured 24 hrs post final dose; format: organism-based; settings: in vivo, 1368 h
[8] = Toxicity in MRL/Ipr Systemic lupus erythematosus mouse model assessed as relative spleen weight at 10 mg/kg, po administered for 8 weeks and measured 24 hrs post final dose relative to control; format: organism-based; settings: in vivo, 1368 h
[9] = target: T2, Toll-like receptor 8 (Homo sapiens, UniProt Q9NR97); assay: Antagonist activity at R848 stimulated human TRL8 overexpressed in HEK293 cells assessed as inhibition of NF kappa B/Ap-1 activation preincubated with compound for 30 mins followed by R848 stimulation measured after 22 hrs by SEAP reporter assay; format: cell-based
T2 sequence (Q9NR97 whole entry): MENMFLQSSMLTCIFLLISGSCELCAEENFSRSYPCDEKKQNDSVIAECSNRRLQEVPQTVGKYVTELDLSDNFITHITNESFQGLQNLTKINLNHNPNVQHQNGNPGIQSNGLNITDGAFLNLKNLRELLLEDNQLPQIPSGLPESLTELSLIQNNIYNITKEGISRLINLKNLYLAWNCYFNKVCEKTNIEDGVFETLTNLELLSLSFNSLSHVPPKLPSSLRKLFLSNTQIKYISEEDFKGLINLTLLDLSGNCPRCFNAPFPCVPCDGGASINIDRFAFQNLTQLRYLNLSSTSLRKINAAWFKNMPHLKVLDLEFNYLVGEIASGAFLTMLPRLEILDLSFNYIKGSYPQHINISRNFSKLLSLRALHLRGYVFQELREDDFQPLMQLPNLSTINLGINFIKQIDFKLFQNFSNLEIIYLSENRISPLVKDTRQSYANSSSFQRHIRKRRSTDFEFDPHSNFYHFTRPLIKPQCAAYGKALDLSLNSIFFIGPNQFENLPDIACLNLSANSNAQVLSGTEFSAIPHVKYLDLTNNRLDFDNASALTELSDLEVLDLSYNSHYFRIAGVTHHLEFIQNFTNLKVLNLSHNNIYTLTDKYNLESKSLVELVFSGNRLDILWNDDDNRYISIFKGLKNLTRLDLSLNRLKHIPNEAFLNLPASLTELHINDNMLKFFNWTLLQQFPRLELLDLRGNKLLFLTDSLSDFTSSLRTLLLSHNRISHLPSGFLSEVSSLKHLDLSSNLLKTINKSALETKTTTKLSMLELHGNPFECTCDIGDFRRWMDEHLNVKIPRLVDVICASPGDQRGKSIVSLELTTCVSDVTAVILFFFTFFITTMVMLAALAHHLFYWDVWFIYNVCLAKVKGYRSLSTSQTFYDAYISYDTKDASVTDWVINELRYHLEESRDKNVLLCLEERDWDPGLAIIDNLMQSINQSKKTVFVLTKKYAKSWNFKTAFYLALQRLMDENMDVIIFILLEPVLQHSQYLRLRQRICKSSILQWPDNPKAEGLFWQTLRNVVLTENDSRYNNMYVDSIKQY

| Structure (SMILES) | pIC50 [1] | Ratio IC50 [2] | further results |
| --- | --- | --- | --- |
| Cc1nc(C)c(C)c(-c2[nH]c3ccc(C4CCNCC4)cc3c2C(C)C)c1C | 6.52 |  |  |
| Cc1cc(-c2[nH]c3ccc(C4CCNCC4)cc3c2C(C)C)c(C)cn1 |  | 370 |  |
| CC(C)c1c(-c2ccnc(CO)c2)[nH]c2ccc(C3CCNCC3)cc12 |  | 19 |  |
| Cc1cnccc1-c1[nH]c2ccc(C3CCNCC3)cc2c1C(C)C |  | 91 |  |
| CC(C)c1c(-c2ccncc2CO)[nH]c2ccc(C3CCNCC3)cc12 | 6.70 |  |  |
| CC(C)c1c(-c2ccnc(C3CC3)c2)[nH]c2ccc(C3CCNCC3)cc12 | 7.04 |  |  |
| CCc1c(-c2ccnc(C)c2)[nH]c2c(F)cc(C3CCNCC3)cc12 |  | 1 |  |
| Cc1cc(-c2[nH]c3ccc(C4CCNCC4)cc3c2C(C)C)c(C)c(C)n1 |  | 130 |  |
| C[C@]12C=CC(=O)C=C1CC[C@@H]1[C@@H]2[C@@H](O)C[C@@]2(C)[C@H]1CC[C@]2(O)C(=O)CO [PREDNISOLONE] |  |  | Activity [3]: 74%; Activity [4]: 85%; Activity [5]: 77%; Activity [6]: 79%; Activity [7]: Toxic; Activity [8]: 88% |
| CNCCN1CCC(c2ccc3[nH]c(-c4cccc(OC)n4)c(C)c3c2)CC1 | < 5.00 |  |  |
| CNCCN1CCC(c2ccc3[nH]c(-c4cncc(OC)c4)c(C)c3c2)CC1 | 5.48 |  |  |
| CNCCN1CCC(c2ccc3[nH]c(-c4cccnc4)c(C)c3c2)CC1 | < 5.00 |  |  |
| CNCCN1CCC(c2ccc3[nH]c(-c4ccc(OC)nc4)c(C)c3c2)CC1 | < 5.00 |  |  |
| Cc1cc(-c2[nH]c3ccc(C4CCNCC4)cc3c2C(C)C)ccn1 |  | 160 |  |
| Cc1cc(-c2[nH]c3ccc(C4CCNCC4)cc3c2C(C)C)cc(F)n1 |  | 1050 |  |

More lines, main results first:

| pIC50 [1] | Ratio IC50 [2] | Structure (SMILES) | further results |
| --- | --- | --- | --- |
| 7.89 |  | CCc1c(-c2ccnc(C)c2)[nH]c2cc(F)c(C3CCNCC3)c(F)c12 |  |
| 7.54 |  | CC(C)c1c(-c2ccncc2)[nH]c2ccc(C3CCNCC3)cc12 |  |
| 9.10 |  | Cc1cc(-c2[nH]c3cc(F)c(C4CCNCC4)cc3c2C(C)C)ccn1 |  |
| 9.05 |  | Cc1cc(-c2[nH]c3ccc(C4CCNCC4)c(F)c3c2C(C)C)cc(C)n1 |  |
| 8.09 |  | Cc1cc(-c2[nH]c3cc(C)c(C4CCNCC4)cc3c2C(C)C)ccn1 |  |
| 7.13 |  | COc1cc(-c2[nH]c3ccc(C4CCNCC4)cc3c2C(C)C)ccn1 |  |
| 7.85 |  | CCc1c(-c2ccnc(C)c2)[nH]c2ccc(C3CCNCC3)c(C)c12 |  |
| 7.55 | 25 | Cc1nccc(-c2[nH]c3ccc(C4CCNCC4)cc3c2C(C)C)c1C |  |
| 7.77 | 77 | Cc1cc(-c2[nH]c3cc(C(F)(F)F)c(C4CCNCC4)cc3c2C(C)C)ccn1 | pIC50 [9]: 6.38 |
| 7.62 |  | CCc1c(-c2ccnc(C)c2)[nH]c2ccc(C3CCNCC3)cc12 |  |
| 7.24 |  | CCc1cc(-c2[nH]c3ccc(C4CCNCC4)cc3c2C(C)C)cc(C)n1 |  |
| 7.66 |  | Cc1cc(-c2[nH]c3ccc(C4CCNCC4)cc3c2C(C)C)cc(C2CC2)n1 |  |
| 8.72 |  | COc1cc(-c2[nH]c3ccc(C4CCNCC4)cc3c2C(C)C)cc(C)n1 |  |
